In brackets after ≈: the same amount, converted by molar mass. Values belong to the compound of their own block, whether it stands above or below them.
Tests used:
[1] = tested on: A375; assay: In vitro combination assay (combination index, Chou-Talalay, MTS) on A375; type: cell-based, human; settings: +Vemurafenib; A375 cell line (Tables 3, 4)
[2] = tested on: A375RF21; assay: In vitro combination assay (combination index) on A375RF21; type: cell-based, human; settings: Treatment + Vemurafenib
[3] = tested on: A375; assay: Cell cycle analysis (flow cytometry) in parental A375 cells; type: cell-based, human
Procedure: (§1) Flow cytometry analysis was performed as described before (Wang Z, Chen J, Wang J, et al. “Novel tubulin polymerization inhibitors overcome multidrug resistance and reduce melanoma lung metastasis.” Pharm. Res. (2012) 29: 3040-3052). To determine cell cycle distributions in the G2 and M phases (FIG. 23), cells were harvested with trypsin, stained using antiphospho-histone H3-AlexaFluor® 488 antibody on ice for one hour in the dark, followed by stained using PI/RNase solution for 30 minutes at room temperature in the dark per the manufacturer's instructions (#FCCH025103, EMD Millipore Corporation, Ballerica, Mass.). Data were further processed and graphs were prepared using the Modfit 2.0 program (Verity Software House, Topsham, Me.).

[4] = tested on: A375RF21 xenograft; assay: A375RF21 tumor xenograft in nude mice; type: in vivo
Procedure: Seven to eight week old male nude mice were purchased from Charles River Laboratories International, Inc. (Wilmington, Mass.). A375RF21 cells were suspended in ice-cold phenol red-free and FBS-free DMEM medium without FBS and mixed with high concentration Matrigel (BD Biosciences, San Joes, Calif.) at ratio of 1:1 right before use. 100 μL of this mixture containing 3×10^6 cells were injected subcutaneously (s.c.) to the left-side dorsal flank of each mouse. One week after the inoculation, the mice were randomized into four groups (n=7 for the initial low dose and n=5 for subsequent high dose drug combination) and the treatments started. […] Vehicle control group was i.p. injected with same volume (100 μL) of PEG300 at the same dosing frequency. At the end of the experiments, mice were euthanized and tumor tissue were isolated, weighted and then fixed in 10% buffered formalin phosphate solution.
Tumor volume and body weight of each mouse were evaluated three times a week.

[5] = tested on: A375RF21; assay: Cell cycle analysis (flow cytometry) in A375RF21 cells; type: cell-based, human; settings: resistant A375RF21 cell line
Procedure: as §1

[6] = tested on: A375RF21; assay: Annexin V/propidium iodide apoptosis detection in A375RF21 cells; type: cell-based, human; settings: 48 hours incubation
[7] = tested on: HL60 tumors; assay: HL60 leukemia xenograft in nude mice; type: in vivo; settings: vincristine 1 mg/kg intraperitoneal injection once a week
[8] = Pharmacokinetic study in ICR mice; settings: mouse; for MousePK_IV10mgk_Cl / MousePK_IV10mgk_V: IV 10 mg/kg
[9] = Aqueous solubility (Multiscreen Solubility Filter Plate, LC-MS/MS); type: physicochemical; settings: aqueous
[10] = Pharmacokinetic study in Sprague-Dawley rats; settings: rat
[11] = in vitro; settings: human, liver microsomes, pH 7.4
[12] = vemurafenib 30 mg/kg, 12da 15 mg/kg, n=5

SMILES: COc1cccc2c1C(=O)c1c(O)c3c(c(O)c1C2=O)C[C@@](O)(C(=O)CO)C[C@@H]3O[C@H]1C[C@H](N)[C@H](O)[C@H](C)O1 [Doxorubicin]
- CI value EC75 [1]: 11.6

SMILES: NC1(c2ccc(-c3nc4ccn5c(=O)[nH]nc5c4cc3-c3ccccc3)cc2)CCC1 [MK2206]
- CI value EC75 [1]: 0.67

SMILES: CCN(CC)CCNC(=O)c1c(C)[nH]c(/C=C2\C(=O)Nc3ccc(F)cc32)c1C [Sunitinib]
- CI ED75 [2]: 0.91
- CI ED90 [2]: 0.93

SMILES: CC(=O)Nc1cccc(-n2c(=O)n(C3CC3)c(=O)c3c(Nc4ccc(I)cc4F)n(C)c(=O)c(C)c32)c1 [Trametinib]
- CI ED75 [2]: 0.90
- CI ED90 [2]: 0.90

SMILES: CCCS(=O)(=O)Nc1ccc(F)c(C(=O)c2c[nH]c3ncc(-c4ccc(Cl)cc4)cc23)c1F [Vemurafenib, reference compound]
- concentration of vemurafenib to produce G0/G1 cell cycle arrest [3]: less than 1 μM
- TGI (%) ([4]; 12da 10 mg/kg, vemurafenib 20 mg/kg, i.p. once per day 5 days per week, after 3 weeks of treatment, n=7): 22.65 ± 8.31%
- TGI (%) ([4]; 12da 10 mg/kg, vemurafenib 20 mg/kg, i.p. once per day 5 days per week, after 3 weeks of treatment, n=7, listed as vemurafenib): 22.65%
- Tumor weight (gram) ([4]; 12da 10 mg/kg, vemurafenib 20 mg/kg, after 3 weeks of treatment, n=7): 2.05 ± 0.14 gram
- TGI (%) [4, 12]: 28.10 ± 4.81%
- Tumor weight (gram) [4, 12]: 1.05 ± 0.21 gram
- TGI (%) ([4]; vemurafenib 30 mg/kg, 12da 15 mg/kg, n=5, listed as vemurafenib): 28.10%
- concentration of vemurafenib to produce G0/G1 cell cycle arrest [5]: ≥ 30 µM
- counted cell apoptosis or death (percentage sum of Q1, Q2 and Q4) [6]: 11.9±3.5%

SMILES: CC[C@]1(O)C[C@@H]2CN(CCc3c([nH]c4ccccc34)[C@@](C(=O)OC)(c3cc4c(cc3OC)N(C)[C@H]3[C@@](O)(C(=O)OC)[C@H](OC(C)=O)[C@]5(CC)C=CCN6CC[C@]43[C@@H]65)C2)C1 [Vinblastine]
- CI value EC75 [1]: 0.78

SMILES: CC[C@]1(O)C[C@H]2CN(CCc3c([nH]c4ccccc34)[C@@](C(=O)OC)(c3cc4c(cc3OC)N(C=O)[C@H]3[C@@](O)(C(=O)OC)[C@H](OC(C)=O)[C@]5(CC)C=CCN6CC[C@]43[C@@H]65)C2)C1 [Vincristine]
- tumor growth inhibition (TGI) [7]: 84%

- MousePK_IV10mgk_Cl [8]: 3.66 L/h/kg
- MousePK_IV10mgk_V [8]: 4 L/kg
- MousePK_PO20mgk_AUC ([8]; PO 20 mg/kg): 201 µg·min/mL
- MousePK_PO20mgk_Cmax ([8]; PO 20 mg/kg): 2592 ng/mL
- Solubility [9]: 0.012 mg/mL (≈ 32.2 µM)
- RatPK_IV5mgk_Cl ([10]; IV 5 mg/kg): 0.96 L/h/kg
- RatPK_IV5mgk_V ([10]; IV 5 mg/kg): 1.9 L/kg
- RatPK_PO10mgk_AUC ([10]; PO 10 mg/kg): 218 µg·min/mL
- RatPK_PO10mgk_Cmax ([10]; PO 10 mg/kg): 1109 ng/mL
SMILES: COc1cc(C(=O)c2c[nH]c(-c3ccc(Cl)cc3)n2)cc(OC)c1OC [drawing 51]

SMILES: COc1cc(C(=O)c2csc(-c3ccccc3)n2)cc(OC)c1OC [drawing 53]
- MousePK_IV10mgk_Cl [8]: 7.8 L/h/kg
- MousePK_IV10mgk_V [8]: 4.9 L/kg
- half-life at 0.5 μM [11]: 17 min
- RatPK_IV5mgk_V ([10]; IV, 2.5mpk): 4.9 (2.5mpk) L/kg
- RatPK_PO10mgk_AUC ([10]; PO 10 mg/kg): 37 µg·min/mL
- RatPK_Bioavailability ([10]; oral): 3.3 % F

From patent US10022356B2, “Compounds for treatment of cancer” (UNIVERSITY OF TENNESSEE RESEARCH FOUNDATION, priority 2013, dated 2018)
